≈ marks a conversion by molar mass, not a printed value. Where “and” joins values, the source holds several entries; their conditions need not be identical. Identical values can stand only once. Like-named read-outs stand apart in the source and are kept apart here.
System: Phytophthora infestans (resistant to metalaxyl)
Format: in vivo
[1] = 16 mg/L active ingredient, 5 days post inoculation, Table 2
[2] = 16 mg/L active ingredient, 6 day post inoculation, Table 6
[3] = 62 mg/L active ingredient, 5 days post inoculation, Table 2
[4] = 62 mg/L active ingredient, 6 day post inoculation, Table 6
[5] = 250 mg/L active ingredient, 5 days post inoculation, Table 2
[6] = 250 mg/L active ingredient, 6 day post inoculation, Table 6
[7] = 250 mg/L active ingredient, Table 27
[8] = 500 mg/L active ingredient, Table 27
[9] = 1000 mg/L active ingredient, 6 day post inoculation, Table 6
[10] = 1000 mg/L active ingredient, Table 27
[11] = Cultivar Cara, 16 mg/L active ingredient, 5 days post inoculation, Table 3
[12] = Cultivar Cara, 62 mg/L active ingredient, 5 days post inoculation, Table 3
[13] = Cultivar Cara, 250 mg/L active ingredient, 5 days post inoculation, Table 3
[14] = Cultivar Cara, 1000 mg/L active ingredient, 5 days post inoculation, Table 3
[15] = Cultivar Draga, 16 mg/L active ingredient, 5 days post inoculation, Table 3
[16] = Cultivar Draga, 62 mg/L active ingredient, 5 days post inoculation, Table 3
[17] = Cultivar Draga, 250 mg/L active ingredient, 5 days post inoculation, Table 3
[18] = Cultivar Draga, 1000 mg/L active ingredient, 5 days post inoculation, Table 3
[19] = 16 mg/L active ingredient, 7 days post inoculation, Table 8
[20] = 25 mg/L active ingredient, 5 days post inoculation, Table 12
[21] = 62 mg/L active ingredient, 7 days post inoculation, Table 8
[22] = 125 mg/L active ingredient, 4 day post inoculation, Table 7
[23] = 250 mg/L active ingredient, 4 days post inoculation, Table 11
[24] = 250 mg/L active ingredient, 7 days post inoculation, Table 8

CC(N)CC(=O)O (stereo not drawn) [BABA, DLβ-amino-butanoic acid]
Percent Disease Control (16 mg/L active ingredient, 5 day post inoculation, Table 4): 3% | Percent Disease Control [1]: 3% | Percent Disease Control [2]: 22% | Percent Disease Control (16 mg/L active ingredient, 7 days, Table 5): 14% | Percent Disease Control (32 mg/L active ingredient, 5 days post inoculation, Table 1): 0% | Percent Disease Control (62 mg/L active ingredient, 5 day post inoculation, Table 4): 24% | Percent Disease Control [3]: 24% | Percent Disease Control [4]: 22% | Percent Disease Control (62 mg/L active ingredient, 7 days, Table 5): 14% | Percent Disease Control (125 mg/L active ingredient, 5 days post inoculation, Table 1): 0% | Percent Disease Control (250 mg/L active ingredient, 5 day post inoculation, Table 4): 18% | Percent Disease Control (250 mg/L active ingredient, 5 days post inoculation, Table 1): 0% | Percent Disease Control [5]: 18% | Percent Disease Control [6]: 22% | Percent Disease Control (250 mg/L active ingredient, 7 days, Table 5): 14% | Percent Disease Control [7]: 38% | Percent Disease Control [8]: 75% | Percent Disease Control (1000 mg/L active ingredient, 5 day post inoculation, Table 4): 64% | Percent Disease Control (1000 mg/L active ingredient, 5 days post inoculation, Table 1): 13% | Percent Disease Control (1000 mg/L active ingredient, 5 days post inoculation, Table 2): 64% | Percent Disease Control [9]: 69% | Percent Disease Control (1000 mg/L active ingredient, 7 days, Table 5): 36% | Percent Disease Control [10]: 93% | ED90 (7 days): 2617 µg/mL (≈ 25400 µM) | Percent Disease Control [11]: 9% | Percent Disease Control [12]: 9% | Percent Disease Control [13]: 9% | Percent Disease Control [14]: 24% | Percent Disease Control [15]: 0% | Percent Disease Control [16]: 0% | Percent Disease Control [17]: 0% | Percent Disease Control [18]: 53%

CCCCCCCCOC(=O)CC(C)NC(=O)c1ccccc1 (racemic) [N-benzoyl octyl ester derivative of BABA]
Percent Disease Control [19]: 3% | Percent Disease Control (16 mg/L active ingredient, 7 days post inoculation, Table 9): 0% | Percent Disease Control (16 mg/L active ingredient, 7 days post inoculation, Table 10): 0% | Percent Disease Control [20]: 15% | Percent Disease Control [21]: 25% | Percent Disease Control (62 mg/L active ingredient, 7 days post inoculation, Table 9): 0% | Percent Disease Control (62 mg/L active ingredient, 7 days post inoculation, Table 10): 0% | Percent Disease Control [22]: 15% | Percent Disease Control (250 mg/L active ingredient, 4 day post inoculation, Table 7): 25% | Percent Disease Control [23]: 63% | Percent Disease Control [24]: 25% | Percent Disease Control (250 mg/L active ingredient, 7 days post inoculation, Table 9): 0% | Percent Disease Control (250 mg/L active ingredient, 7 days post inoculation, Table 10): 0% | Percent Disease Control (500 mg/L active ingredient, 4 days post inoculation, Table 11): 69% | Percent Disease Control (500 mg/L active ingredient, 5 days post inoculation, Table 12): 25% | Percent Disease Control (1000 mg/L active ingredient, 4 day post inoculation, Table 7): 50% | Percent Disease Control (1000 mg/L active ingredient, 4 days post inoculation, Table 11): 85% | Percent Disease Control (1000 mg/L active ingredient, 5 days post inoculation, Table 12): 50% | Percent Disease Control (1000 mg/L active ingredient, 7 days post inoculation, Table 8): 75% | Percent Disease Control (1000 mg/L active ingredient, 7 days post inoculation, Table 9): 25% | Percent Disease Control (1000 mg/L active ingredient, 7 days post inoculation, Table 10): 25% | Percent Disease Control (2000 mg/L active ingredient, 4 day post inoculation, Table 7): 53% | Percent Disease Control (2000 mg/L active ingredient, 4 days post inoculation, Table 11): 89% | Percent Disease Control (2000 mg/L active ingredient, 5 days post inoculation, Table 12): 53%

Cc1ccc(C(C)NC(=O)[C@@H](NC(=O)OC(C)C)C(C)C)cc1 (some centres unmarked) [Fencaramid]
Percent Disease Control (2 mg/L active ingredient, 4 day post inoculation, Table 7): 0% | Percent Disease Control (2 mg/L active ingredient, 5 days post inoculation, Table 12): 0% | Percent Disease Control (8 mg/L active ingredient, 4 day post inoculation, Table 7): 50% | Percent Disease Control (8 mg/L active ingredient, 5 days post inoculation, Table 12): 50% | Percent Disease Control [20]: 100% | Percent Disease Control (31 mg/L active ingredient, 5 days post inoculation, Table 12): 98% | Percent Disease Control (32 mg/L active ingredient, 4 day post inoculation, Table 7): 98% | Percent Disease Control [22]: 100% | ED90 (4 day post inoculation, Table 7): 19 µg/mL (≈ 59.3 µM) | ED90 (5 days post inoculation, Table 12): 19 µg/mL (≈ 59.3 µM)

CCNC(=O)NC(=O)/C(C#N)=N/OC [Cymoxanil]
Percent Disease Control (4 mg/L active ingredient, 5 days post inoculation, Table 2): 36% | Percent Disease Control [1]: 73% | Percent Disease Control [2]: 83% | Percent Disease Control [3]: 64% | Percent Disease Control [4]: 86% | Percent Disease Control [5]: 98% | Percent Disease Control [6]: 91% | Percent Disease Control [9]: 100% | ED90 (in vivo): 128 µg/mL and 183 µg/mL

O=C1c2ccccc2C(=O)N1SC(Cl)(Cl)Cl [FOLPET, Folpet]
Percent Disease Control (4 mg/L active ingredient, 4 days post inoculation, Table 11): 70% | Percent Disease Control (16 mg/L active ingredient, 4 days post inoculation, Table 11): 75% | Percent Disease Control [2]: 81% | Percent Disease Control (62 mg/L active ingredient, 4 days post inoculation, Table 11): 90% | Percent Disease Control [4]: 95% | Percent Disease Control [23]: 95% | Percent Disease Control [6]: 98% | Percent Disease Control [9]: 100% | ED90 (4 days post inoculation, Table 11): 141 µg/mL (≈ 475 µM) | ED90 (6 day post inoculation, Table 6): 84 µg/mL (≈ 283 µM)

[Cu+2].[OH-].[OH-] [Cu(OH)2, copper hydroxide]
Percent Disease Control (4 mg/L active ingredient, 7 days post inoculation, Table 8): 0% | Percent Disease Control [19]: 0% | Percent Disease Control [21]: 13% | Percent Disease Control [24]: 75% | ED90 (7 days post inoculation, Table 8): 298 µg/mL

CCO[PH](=O)O [Fosetyl − Al, phosetyl-aluminium]
Percent Disease Control [11]: 9% | Percent Disease Control [12]: 24% | Percent Disease Control [13]: 24% | Percent Disease Control [14]: 70% | ED90 (Cultivar Cara, 5 days post inoculation, Table 3): 1390 µg/mL (≈ 12600 µM) | Percent Disease Control [15]: 33% | Percent Disease Control [16]: 33% | Percent Disease Control [17]: 50% | Percent Disease Control [18]: 93% | ED90 (Cultivar Draga, 5 days post inoculation, Table 3): 856 µg/mL (≈ 7780 µM)

CSC(=O)c1cccc2nnsc12 [BION, Acibenzolar-s-methyl]
Percent Disease Control [7]: 13% | Percent Disease Control [8]: 25% | Percent Disease Control [10]: 78% | ED90 (Table 27): 1173 µg/mL (≈ 5580 µM)

Reference: patent publication US6414019B1, “Synergistic mixtures of selected amino acids” (Agrogene Ltd., priority 1997, dated 2002)
